In PMC10135569, “Does Enhanced Structural Maturity of hiPSC-Cardiomyocytes Better for the Detection of Drug-Induced Cardiotoxicity?” (Biomolecules, 2023):
Entries after “also recorded” stand apart in the source; their conditions may differ. Where two headings read alike, the source gives them in different places.

Tests used:
[1] = tested on: hiPSC-CMs (iCell2 Cardiomyocytes) 2D monolayers; assay: Membrane potential (action potential) recordings with FluoVolt voltage-sensitive dye on the CellOPTIQ platform; format: cell-based, human; conditions: for effect on APD90: positive control
Experimental: (§1) Cardiomyocytes (FUJIFILM Cellular Dynamics, Madison, WI, USA) were kept at −190 °C and prepared for culture as per the manufacturer’s instructions.
(§2) Standard fibronectin vs. Matrix Plus well coating: The cells were cultured using two different coatings in a humidified incubator at 37 °C with 5% CO2. First, 96-well glass-bottomed plates (MatTek, Ashland, MA) were coated with fibronectin ([…] in PBS supplemented with Ca^2+ and Mg^2+; Sigma, St. Louis, MO, USA) (defining FM). Second, CELLvo^TM Matrix Plus (StemBioSys, San Antonio, TX, USA), which were pre-coated on 96 well glass bottom plates and kept at 4 °C. On the day of plating, CELLvo^TM Matrix Plus plates were transferred to room temperature, rehydrated with phosphate buffer saline (PBS), incubated for 1 h at 37 °C, and washed 2× with PBS. Cells were introduced at a density of 50,000 cells/well to allow the formation of a confluent monolayer in each well (defined as MM). The maintenance protocols followed the manufacturer’s instructions and used the iCell^2 Cardiomyocytes Maintenance media for media changes every 2 days. Experiments were performed between days 5 and 6, as recommended by the manufacturers. Before beginning an experiment, cells were washed in serum-free media (SF media) (Fluorobrite DMEM, Gibco, Thermo Fisher Scientific, Horsham, UK).
(§3) The drug powders were dissolved in DMSO, and four stock concentrations at 1000× the final target concentration were prepared in DMSO. For the experiment, an intermediate concentration 2× the target solution was prepared in SF media. The addition of drugs to the cells was accomplished by replacing 50% of the well volume with the intermediate 2× solution. The same procedure was done for vehicle control using DMSO. The experimental number n = 8/concentration/testing compound in the FM or MM condition, and n = 36 for each positive or negative control in the FM or MM condition.
Cultures of hiPSC-CMs (5–6 days post-plating) were treated with FluoVolt dye (1:1000, Invitrogen, Cat# F10488) in SF media and incubated for 20 min at 37 °C with 5% CO2 and 80% humidity. Multi-well plates were placed in the environmentally controlled stage incubator (37 °C, 5% CO2, water-saturated air atmosphere) (Okolab Inc. Burlingame, CA) of the CellOPTIQ® platform (Clyde Biosciences Ltd., Glasgow, Scotland). The FluoVolt signal was recorded from a 0.2 mm × 0.2 mm area using a 40× (numerical aperture: NA 0.6) Excitation wavelength was 470 ± 10 nm using a light-emitting diode (LED), and emitted light was collected by two photomultipliers (PMTs) at 510–560 nm (channel 1) and 590–650 nm (channel 2), respectively. LED, PMT, and associated power supplies and amplifiers were supplied by Cairn Research Ltd. (Kent, UK) and digitized at 10 kHz and stored on a computer hard drive. In the case of FluoVolt-based action potential recordings, the short wavelength (channel 1, […]) was analyzed for action potential features.
(§4) The dye FluoVolt is loaded into the surface membrane (outer leaflet), and the dye remains within the membrane for many dots, allowing intermittent voltage measurements over the experimental period. In this study, measurements were restricted to within 30 mins of application of the drug. The measurements were made on the same area before/after drug/DMSO addition. […] Baseline spontaneous electrical activity and the associated contractility signal were recorded by capturing 10 s segments of fluorescent signal and video for 2D plates and 15 s for organoids from each well prior to compound addition. Drugs were tested at four concentrations in n = 8 independent replicates (i.e., 8 wells from a single plating) at each concentration. A vehicle control was included for each drug. A 10 s or 15 s recording was then taken 30 min after exposure to the drug or vehicle with only one concentration applied/well.

[2] = tested on: hiPSC-CMs (iCell2 Cardiomyocytes) 2D monolayers; assay: Contractility measurements using video imaging (ContractilityTool / MUSCLEMOTION); format: cell-based, human
Experimental: as §1, §2, §3
as §4, with “applied/well. Offline analysis was performed using proprietary software (CellOPTIQ®).” for “applied/well.”
Short periods (10 s or 15 s) of video were analyzed using the ContractilityTool application (developed by F.L. Burton), which is an implementation of the MUSCLEMOTION algorithm.

[3] = listed in Supplementary Table S1; no reference given; cited from earlier work
[4] = FM monolayer, 0.01 µM, 30 min, delta over DMSO 0.1%
[5] = FM monolayer, 0.1 µM, 30 min, delta over DMSO 0.1%
[6] = FM monolayer, 0.3 µM, 30 min, delta over DMSO 0.1%
[7] = FM monolayer, 1 µM, 30 min, delta over DMSO 0.1%
[8] = MM monolayer, 0.01 µM, 30 min, delta over DMSO 0.1%
[9] = MM monolayer, 0.1 µM, 30 min, delta over DMSO 0.1%
[10] = MM monolayer, 0.3 µM, 30 min, delta over DMSO 0.1%
[11] = MM monolayer, 1 µM, 30 min, delta over DMSO 0.1%
[12] = range of concentrations, negative control, FM and MM

## COC(=O)C1=C(C)NC(C)=C(C(=O)OC)C1c1ccccc1[N+](=O)[O-] [Nifedipine]
[1]; 100 nM, 2D monolayers on fibronectin and Matrix Plus
  effect on APD90: shortened; also recorded: reduced
[2]; 100 nM, 2D monolayers on fibronectin and Matrix Plus, positive control
  effect on duration of contraction: shortened; also recorded: reduced

## NC(=Nc1ccc(OCCCCCOc2ccc(N=C(N)c3ccccc3)cc2)cc1)c1ccccc1 [PA-6]
[1]; [4]
  APD30 (%DD): 108±3.6 %DD
  APD90 (%DD): 104±1.1 %DD
  CL (%DD): 101±0.8 %DD
  Trise (%DD): 101±17.4 %DD
[1]; [5]
  APD30 (%DD): 99±3 %DD
  APD90 (%DD): 107±1.4 %DD
  CL (%DD): 98±2.3 %DD
  Trise (%DD): 70±6.1 %DD
[1]; [6]
  APD30 (%DD): 105±2.4 %DD
  APD90 (%DD): 111±0.8 %DD
  CL (%DD): 101±2.5 %DD
  Trise (%DD): 89±10.8 %DD
[1]; [7]
  APD30 (%DD): 110±1.3 %DD
  APD90 (%DD): 116±1.3 %DD
  CL (%DD): 108±1.4 %DD
  Trise (%DD): 128 ± 15.8 %DD
[1]; [8]
  APD30 (%DD): 107±1.9 %DD
  APD90 (%DD): 103±1.5 %DD
  CL (%DD): 97±0.7 %DD
  Trise (%DD): 119±25.1 %DD
[1]; [9]
  APD30 (%DD): 105±1 %DD
  APD90 (%DD): 111±2.2 %DD
  CL (%DD): 100±0.5 %DD
  Trise (%DD): 74±17.9 %DD
[1]; [10]
  APD30 (%DD): 107±1.9 %DD
  APD90 (%DD): 111±1 %DD
  CL (%DD): 102±0.8 %DD
  Trise (%DD): 96±12.7 %DD
[1]; [11]
  APD30 (%DD): 107±1.5 %DD
  APD90 (%DD): 111±1.7 %DD
  CL (%DD): 108±2.4 %DD
  Trise (%DD): 138±14.2 %DD
[1]; both FM and MM monolayers, concentration not given
  effect on APD90 (in words): mild APD90 prolongation
[1]; both experimental groups
  effect of selective Kir2.1 channel block: lack of effect
[2]; [4]
  CtAmp (%DD): 103±8.8 %DD
  CtD50 (%DD): 104±1.7 %DD
[2]; [5]
  CtAmp (%DD): 111±14.2 %DD
  CtD50 (%DD): 105±1.8 %DD
[2]; [6]
  CtAmp (%DD): 105±10.2 %DD
  CtD50 (%DD): 106±2.1 %DD
[2]; [7]
  CtAmp (%DD): 111 ± 8.1 %DD
  CtD50 (%DD): 112±2.5 %DD
[2]; [8]
  CtAmp (%DD): 127±13 %DD
  CtD50 (%DD): 101±1.3 %DD
[2]; [9]
  CtAmp (%DD): 99±11.2 %DD
  CtD50 (%DD): 103±1.1 %DD
[2]; [10]
  CtAmp (%DD): 135±22.2 %DD
  CtD50 (%DD): 105±1.9 %DD
[2]; [11]
  CtAmp (%DD): 114±9.8 %DD
  CtD50 (%DD): 107±1.2 %DD

## COCCOC(=O)C1=C(C)NC(C)=C(C(=O)OC(C)C)C1c1cccc([N+](=O)[O-])c1 (centres unmarked) [Nimodipine]
[3]
  Free Cmax: 69 nM

## O=C(O)COCCN1CCN(C(c2ccccc2)c2ccc(Cl)cc2)CC1 (centres unmarked) [Cetirizine]
[1]; Homo sapiens, Cardiomyocyte, 0.5 h, FM monolayer, 0.1 µM, 30 min, delta over DMSO 0.1%, read-out: Trise (%DD)
  activity at 0.1 µM: 154 ± 32.6%
[1]; Homo sapiens, Cardiomyocyte, 0.5 h, FM monolayer, 0.3 µM, 30 min, delta over DMSO 0.1%, read-out: Trise (%DD)
  activity at 0.3 µM: 127 ± 16.8%
[1]; Homo sapiens, Cardiomyocyte, 0.5 h, FM monolayer, 3 µM, 30 min, delta over DMSO 0.1%, read-out: Trise (%DD)
  activity at 3 µM: 122 ± 8.8%
[1]; Homo sapiens, Cardiomyocyte, 0.5 h, MM monolayer, 0.1 µM, 30 min, delta over DMSO 0.1%, read-out: Trise (%DD)
  activity at 0.1 µM: 146 ± 16.9%
[1]; [12]
  change in the voltage parameters: No change
[2]; Homo sapiens, Cardiomyocyte, 0.5 h, FM monolayer, 0.1 µM, 30 min, delta over DMSO 0.1%, read-out: CtAmp (%DD)
  activity at 0.1 µM: 72 ± 13.3%
[2]; Homo sapiens, Cardiomyocyte, 0.5 h, FM monolayer, 0.3 µM, 30 min, delta over DMSO 0.1%, read-out: CtAmp (%DD)
  activity at 0.3 µM: 87 ± 14.6%
[2]; Homo sapiens, Cardiomyocyte, 0.5 h, FM monolayer, 1 µM, 30 min, delta over DMSO 0.1%, read-out: CtAmp (%DD)
  activity at 1 µM: 129 ± 32.9%
[2]; Homo sapiens, Cardiomyocyte, 0.5 h, MM monolayer, 1 µM, 30 min, delta over DMSO 0.1%, read-out: CtAmp (%DD)
  activity at 1 µM: 118 ± 14.2%
[2]; Homo sapiens, Cardiomyocyte, 0.5 h, MM monolayer, 3 µM, 30 min, delta over DMSO 0.1%, read-out: CtAmp (%DD)
  activity at 3 µM: 87 ± 5.3%
[2]; [12]
  change in the contractility parameters: No change

## CN(CCOc1ccc(NS(C)(=O)=O)cc1)CCc1ccc(NS(C)(=O)=O)cc1 [Dofetilide]
[1]; 10 nM, both 2D models
  effect on APD90: significantly prolonged
[3]
  Free Cmax: 2.7 nM

## CC(=O)OCC[N+](C)(C)C [acetylcholine]
[1]; both FM and MM, concentration not given
  effect on beating rate / spontaneous rate (in words): decrease
[1]; both groups (FM and MM)
  changes in the APD: < 10%
